In patent publication US8071641B2 (Yissum Research Development Company of the Hebrew …, priority 2004, dated 2011):
Several values for one entry are separate records, joined by “and”; a condition that tells them apart may be missing. Equal entries are not always repeated.

Experiments:
peripheral receptors CB2 = peripheral receptors CB2 (Homo sapiens, UniProt P34972); settings: cited from earlier work
NOD mice = experiment: Spontaneous diabetes in NOD mice (glucosuria, IPGTT); assay type: in vivo
From the text: Animals: Non-obese diabetic (NOD) mice develop spontaneous autoimmune diabetes and are commonly used as an experimental model for human insulin-dependent diabetes mellitus [Miazaki A., Clin. Exp. Immunol. 60:622 (1998); Harada, M., Exp. Clin. Endocrinol. 89: 251 (1987)].
Six to twelve week old NOD/Ltj female mice were fed standard laboratory animal chow ad libitum and were kept in Specific Pathogen Free (SPF) animal house facility.
(§1) Mice injected with vehicle alone as well as untreated mice served as controls.
Glucosuria analysis: The severity of diabetes was determined according to glucosuria, which was measured using Combi 9 Teststrips (Medi-Test, Macherey-Nagel, Duren, Germany).
Intraperitoneal glucose tolerance tests (IPGTT): Blood samples were obtained from the paraorbital plexus at 0 and 60 minutes after administration of an i.p. glucose injection at a dose of 1 g/kg body weight. Plasma glucose levels were determined using Glucose Analyzer 2 (Beckman Instruments). A glucose level above 15 mmol/liter at the 60 min time point was considered as a positive IPGTT.

islets of Langerhans = experiment: Histopathology of pancreatic islets (insulitis) in NOD mice; assay type: in vivo
From the text: as §1
Histopathology: Twenty weeks after onset of treatment mice were sacrificed. Pancreatic tissue samples were fixed in 4% buffered formation, embedded in paraffin, sectioned (5 μm thickness) and stained with hematoxylin and eosin. The stained pancreatic sections were observed under a microscope for infiltration of mononuclear lymphocytes into the islets of Langerhans (insulitis). The sections were scored by two uninformed observers as follows: 0, no cell infiltration; 1, cell infiltration in <20% of islet area; 2, cell infiltration in <50% of islet area; cell infiltration in <75% of islet area; and 4, cell infiltration in 90-100% of islet area.

mice [1] = settings: topical administration; cited from earlier work
human leukocytes = settings: cited from earlier work
mice [2] = settings: orally at doses of up to 10 mg/kg; cited from earlier work
INFγ = experiment: Plasma INFγ level in NOD mice by ELISA; assay type: in vivo; settings: 5 mg/kg i.p., mean of 5 mice
Protocol: as §1
Plasma INFγ: INFγ is associated with the progression of diabetes in NOD mice (Schloot, N. C., Diabetes Metab. Res. Rev. 18:64, 2002; Weiss et al., Cytokine 19:85, 2002; Braz, J., Med. Biol. Res. 35: 1347, 2000).
Plasma INFγ levels in mice were determined by ELISA kit (B.D Bioscience San Diego U.S.A).

[3] = system: mouse peritoneal macrophages; settings: macrophages activated by LPS and IFNγ; cited from earlier work
male NOD mice = experiment: Diabetes induced in male NOD mice by transfer of spleen cells from diabetic female mice; assay type: in vivo
Protocol: Experimental design—Male NOD mice were irradiated (650 cGy), 24 hrs prior to intravenous injection of spleen cells (25-28×10^6) derived from female diabetic mice.
Intraperitoneal glucose tolerance tests (IPGTT)—see Example 1 above. Blood glucose levels above 140 mg/dl were considered diabetic by testing blood glucose at t-0, 60 min following IP injection of 1 gr/Kg body weight of glucose [Glucometer Elite apparatus (Bayer Diagnostics, ELKART, IN)]. Alternatively, urine samples were taken twice a week from diabetic mice for testing glucose levels. Urine glucose levels above 1000 mg/dl as determined by combi 9 Teststrips (Medi-Test, Macherey-Nagel, Duren, Germany) were considered diabetic;

[4] = 20 weeks after onset of treatment, of 54 scored fields
[5] = high concentrations (5-24 pg/ml)
[6] = 5 mg/kg CBD, 20 IP injections, 5 times/week, of 15 mice

Chain of peripheral receptors CB2 (P34972 whole entry): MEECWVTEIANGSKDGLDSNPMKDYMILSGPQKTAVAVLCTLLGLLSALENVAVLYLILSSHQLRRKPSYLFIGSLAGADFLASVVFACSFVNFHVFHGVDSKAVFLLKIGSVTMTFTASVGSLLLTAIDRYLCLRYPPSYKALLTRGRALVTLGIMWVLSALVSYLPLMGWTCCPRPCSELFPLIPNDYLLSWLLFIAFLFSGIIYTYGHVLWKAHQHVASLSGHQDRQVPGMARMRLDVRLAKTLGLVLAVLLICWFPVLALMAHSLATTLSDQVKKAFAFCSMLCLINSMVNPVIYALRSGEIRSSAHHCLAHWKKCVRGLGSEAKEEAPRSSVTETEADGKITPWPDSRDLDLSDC

C=C(C)[C@@H]1CCC(C)=C[C@H]1c1c(O)cc(CCCCC)cc1O [CBD, Cannabidiol]
binding to peripheral receptors CB2 (peripheral receptors CB2): does not bind | onset of symptoms in the CBD-treated diabetic mice (NOD mice; compared to untreated and vehicle-treated controls): substantially delayed | rate of protection (NOD mice; compared with controls): greater than 65% | Diabetes appearance (weeks), mean and range of weeks of first positive diagnosis (NOD mice; female NOD mice, 5 mg/kg i.p.): 18.4 (15-22) weeks | Diabetes incidence (%) (NOD mice; female NOD mice, 5 mg/kg i.p., 5 injections per week, 10-23 injections): 21.7% | No. of diabetic mice (NOD mice; female NOD mice, 5 mg/kg i.p., 5 injections per week, 10-23 injections, of 23 mice): 5 | islets showing destruction (islets of Langerhans; 1/54): 1.9% | islets showing total infiltration (islets of Langerhans; 6/54): 11% | protected islets (intact or only partially infiltrated) (islets of Langerhans; 20 week period, 47/54): 87% | No. of fully destroyed islets (islets of Langerhans; [4]): 1 | No. of intact islets (islets of Langerhans; [4]): 26 | No. of partially infiltrated islets (islets of Langerhans; [4]): 21 | No. of totally infiltrated islets (islets of Langerhans; [4]): 6 | only partially infiltrated pancreatic islets (islets of Langerhans; 21/54): 39% | intact pancreatic islets (islets of Langerhans; 26/54): 48% | TPA-induced erythema (mice [1]): reduce | IFNγ synthesis (human leukocytes; [5]): completely blocked | IL-1 production (human leukocytes; [5]): decreased | IL-2 secretion (human leukocytes; [5]): did not affect | TNFα production (human leukocytes; [5]): decreased | IFNγ production (human leukocytes; low concentrations): increased | PBQ-induced writhing (mice [2]): inhibited | INFγ (pg/ml) ± SD (INFγ): 43 pg/ml and 43 ± 21*^2 pg/ml | nitric oxide (NO) produced [3]: inhibited | Total % of diabetic mice (male NOD mice; 5 mg/kg CBD, 20 IP injections, 5 times/week): 53% | No. of diabetic mice (urine glucose above 1000 mg/dl) (male NOD mice; [6]): 6 | No. of mice w/ latent diabetes (blood glucose above 140 mg/dl 60 minutes following IP glucose injection) (male NOD mice; [6]): 2 | suppression of the appearance of diabetes (male NOD mice; male NOD mice injected with splenocytes from diabetic female NOD mice): about half
